Measured values as given in patent publication US20250302840A1, “COMBINATION THERAPIES” (Janssen Pharmaceutica NV, priority 2021, published 2025).
Counter-ions that a name gives are not always drawn. Marks after values point to notes of the source that are not given here.

How the values were obtained:
MOLM-13 tumors = assay: Efficacy of combinations in MOLM-13 (KMT2a-r) IV model in NSG mice; type: in vivo; conditions: azacitidine 2 mg/kg ip QD × 7; venetoclax 100 mg/kg po QD × 28; Compound A1 10 mg/kg po QD × 28
Experimental: Each mouse received an injection of 1×10^5 MOLM-13 cells, and all other parameters were conducted as described for experiment (10).

OCI-AML3 tumors = assay: Efficacy of combinations in OCI-AML3 (NPM1c) IV model in NSG mice; type: in vivo; conditions: azacitidine 2 mg/kg ip QD × 7; venetoclax 100 mg/kg po QD × 28; Compound A1 30 mg/kg po QD × 28
Experimental: Median survival was determined utilizing Kaplan-Meier survival analysis.

iCell® Cardiomyocytes2 = assay: Ca2+-fluorescence assay in human pluripotent stem cell-derived cardiomyocytes (CTCM human); type: cell-based; set-up: key to Hazard scoring, Color @ 0.1 μM / Hazard scoring, Color @ 0.2 μM / Hazard scoring, Color @ 0.5 μM / Hazard scoring, Color @ 1 μM / Hazard scoring, Color @ 2.5 μM / Hazard scoring, Color @ 5 μM / Hazard scoring, Color @ 0.3 μM / Hazard scoring, Color @ 3 μM / Hazard scoring, Color @ 10 μM / Hazard scoring, Color @ 30 μM: Green: No concern; Yellow: Low concern; Red: High concern; Black: Very high concern due to arrhythmic events
Experimental: Compounds were tested in the 96-well plates.
Compounds were tested at 0.1 μM, 0.2 μM, 0.5 μM, 1 μM, 2.5 μM and 5 μM (n=4 per dose) on Cor.4U®-Cardiomyocytes or on iCell® Cardiomyocytes2.
Alternatively, compounds were tested at 0.1 μM, 0.3 μM; 1 μM, 3 μM, 10 μM and 30 μM (n=4 per dose) mostly on iCell® Cardiomyocytes2.
Vehicle control: Dimethylsulfoxide (DMSO). The solutions of the compound in DMSO or its solvent (final concentration of 0.1% DMSO; n=8).
Tested compounds were dissolved in DMSO at 1000-fold the intended concentrations.
A compound “mother-plate” was made, containing the test compounds and positive and negative controls at 1000-fold the final concentrations. At the experiment day, these stock solutions were diluted with Tyrode (Sigma), supplemented with 10 mM HEPES (Gibco), to 2-fold the intended concentration (in round bottom compound plates). Final DMSO concentration in test solutions and vehicle control was 0.1%.
Second line hSC derived cardiomyocyte called iCell® Cardiomyocytes2 were purchased from FUJIFILM Cellular Dynamics (USA). The experiments with test drugs are carried out 5 to 7 days after plating the cells onto the plate to have a living, beating monolayer of hiPSC-derived cardiomyocytes. The beating monolayer in 96-well-plates are normally taken from 2 Vials of frozen iCell® Cardiomyocytes2 (˜5 million cells/vial), which will be plated onto […] 96-well plates (z50K/well).
At least one hour before the start of the experiments the normal cell medium was replaced with Tyrode solution with Calcium dye (see below).
Cal 520 dye (AAT Bioquest) was dissolved in 11 ml of Tyrode supplemented with 10 mM HEPES and warmed up to 37 C before adding to the cells.
35 μl cell culture medium was removed from each well and replaced with 35 μl of pre-warmed Cal 520 dye solution and cell plate was incubated for 45 min at 37° C./5% CO2. Cells were incubated for 5 min at 37° C.
Spontaneous electrical activity is recorded, using Cal520™ (AAT Bioquest) calcium fluorescence-dye signalling. This dye integrates the total intracellular calcium activity over the whole well. A bottle of Cal520 dye ([…], MW: 1103/mol) is dissolved with 50 μl DMSO as a stock solution of 0.9 mM. 50 μL of the stock solution of the dye was added to 10 ml Tryodes solution to have dye concentration of 4.5 μM. Subsequently, 35 μl of this dye solution was added into each well, to have a final dye concentration of 1.58 μM. The current dye protocol on this CTCM human assay was established recently (Ivan Kopljar et al, Journal of Pharmacological and toxicological methods 2018. 91: 80-86; Lu et al., Tox Sci 2019. 170 (2): 345-356).
Fluorescent signals (Ca^2+ transient morphology) were measured using the Functional Drug Screen System (FDSS/pCell; Hamamatsu, Japan) and the recordings were subsequently analyzed off-line, using appropriate software e.g., Notocord.
The cell plate was loaded into the FDSS/pCell for a test run: Ca^2+ transients were measured for 4 minutes to check for synchronous beating of the cardiomyocytes in each well. All 96 wells were measured simultaneously (sampling interval: 0.06 s, short exposure time: 10 ms; excitation wavelength 480 nm; emission wavelength 540 nm; FDSS/pCell warmed to 37° C.).
During the compound addition step, 100 μl of the respective double-concentrated test solutions was pipetted into each well simultaneously.
Data were analyzed off-line using appropriate software e.g., Notocord-Hem (version 4.3).
The following parameters of the Ca^2+ transient morphology were measured: • beat rate (BR) • amplitude of the Ca^2+ transient (Amp), • CTD90: Ca^2+ transient duration at 90% (time to 90% of the initial base value).
The presence of various ‘arrhythmia-like’ activities were also noted during the experimental periods. […]

[1] = Mouse PK (in vivo T1/2 and oral bioavailability); set-up: species or system CD-1 mice; conditions: for In vivo T1/2 (IV): IV 0.5 or 1.0 mg/kg
Experimental: In vivo pharmacokinetics (PK) were assessed in fasted male CD-1 mice (age 6-8 weeks) following a single intravenous (IV, 0.5 or 1.0 mg/kg administered at 2.5 ml/kg) or oral (PO, 5 mg/kg administered at 10 ml solution/kg) dose of test article formulated in a 20% (w:vol) HP-β-CD solution or in Pyrogen free water.
Plasma and/or whole blood samples were collected from the dorsal metatarsal vein at desired timepoints via serial capillary microsampling (approx. 0.03 mL) using EDTA as an anticoagulant. Concentrations of compound in the plasma and blood samples were analyzed using a qualified LC-MS/MS method. In silico analysis of main pharmacokinetic parameters was performed using WinNonlin (Phoenix™, version 6.1) or similar software.)

[2] = efficacious dose in mouse xenograft models of 30 mg/kg, (mouse, human)

Row | SMILES | % ILS (MOLM-13 tumors) | Hazard scoring, Color @ 0.1 μM (iCell® Cardiomyocytes2; 30 min incubation, Table 12) | Hazard scoring, Color @ 0.3 μM (iCell® Cardiomyocytes2; 30 min incubation, Table 12) | Hazard scoring, Color @ 1 μM (iCell® Cardiomyocytes2; 30 min incubation, Table 12) | Hazard scoring, Color @ 3 μM (iCell® Cardiomyocytes2; 30 min incubation, Table 12) | Hazard scoring, Color @ 10 μM (iCell® Cardiomyocytes2; 30 min incubation, Table 12) | Hazard scoring, Color @ 30 μM (iCell® Cardiomyocytes2; 30 min incubation, Table 12) | other results
1 | CC1(C)CCC(CN2CCN(c3ccc(C(=O)NS(=O)(=O)c4ccc(NCC5CCOCC5)c([N+](=O)[O-])c4)c(Oc4cnc5[nH]ccc5c4)c3)CC2)=C(c2ccc(Cl)cc2)C1 [Venetoclax, reference compound] | 6% |  |  |  |  |  |  | % ILS (OCI-AML3 tumors): 0 (ns) %
2 | CCN(C(=O)c1cc(F)ccc1Oc1nncnc1N1CCC2(C1)CN([C@H](CCCN(C)CCOC)C(C)C)C2)C(C)C [Compound A3, (R)—N-ethyl-5-fluoro-N-isopropyl-2-((5-(2-(6-((2-methoxyethyl) (methyl)amino)-2-methylhexan-3-yl)-2,6-diazaspiro[3.4]octan-6-yl)-1,2,4-triazin-6-yl)oxy) benzamide oxalate] |  |  |  |  |  |  |  | Hazard scoring, Color @ 0.1 μM (iCell® Cardiomyocytes2; 30 min incubation, Table 11): Green; Hazard scoring, Color @ 0.2 μM (iCell® Cardiomyocytes2; 0.2 μM, 30 min incubation, Table 11): Green; Hazard scoring, Color @ 0.5 μM (iCell® Cardiomyocytes2; 0.5 μM, 30 min incubation, Table 11): Green; Hazard scoring, Color @ 1 μM (iCell® Cardiomyocytes2; 30 min incubation, Table 11): Green; Hazard scoring, Color @ 2.5 μM (iCell® Cardiomyocytes2; 2.5 μM, 30 min incubation, Table 11): Green; Hazard scoring, Color @ 5 μM (iCell® Cardiomyocytes2; 5 μM, 30 min incubation, Table 11): Green; In vivo T1/2 (IV) ([1]; formulating agent Pyrogen free water): 9.0 h
3 | CCN(C(=O)c1cc(F)ccc1Oc1nncnc1N1CCC2(C1)CN([C@H](CCCNCCOC)C(C)C)C2)C(C)C [Compound 11, (R)—N-ethyl-5-fluoro-N-isopropyl-2-((5-(2-(6-((2-methoxyethyl)amino)-2-methylhexan-3-yl)-2,6-diazaspiro[3.4]octan-6-yl)-1,2,4-triazin-6-yl)oxy)benzamide] |  | Green | Green | Green | Green | Green | Green | 
4 | CCN(C(=O)c1cc(F)ccc1Oc1nncnc1N1CCC2(C1)CN([C@H](CCCN(C)CCOC)C(C)C)C2)C(C)C [Compound A1] | 35* % | Green | Green | Green | Green | Green | yellow | Margin CTCM human 10 μM vs free Cmax (iCell® Cardiomyocytes2; [2]): > 16; Margin CTCM human 30 μM vs free Cmax (iCell® Cardiomyocytes2; [2]): > 45
5 | CCN(C(=O)c1cc(F)ccc1Oc1nncnc1N1CCC2(C1)CN([C@H](CCCN(C)CCOC)C(C)C)C2)C(C)C [Compound A, (R)—N-ethyl-5-fluoro-N-isopropyl-2-((5-(2-(6-((2-methoxyethyl) (methyl)amino)-2-methylhexan-3-yl)-2,6-diazaspiro[3.4]octan-6-yl)-1,2,4-triazin-6-yl)oxy) benzamide] |  |  |  |  |  |  |  | In vivo T1/2 (IV) ([1]; formulating agent HP-β-CD): 6.7 h; Bioavailability (PO) ([1]; PO 5 mg/kg, formulating agent HP-β-CD): 17%
